Here are results for two compounds from US8419943B2, “Method of removing protein-bound deleterious substances during extracorporeal renal replacement treatment” (Fresenius Medical Care Holdings, Inc., priority 2008, dated 2013).

For data set [1] the following is noted: normal adults; cited from earlier work.
For another data set, the target named is albumin (Homo sapiens, UniProt P02768). The data set is described as follows: Competitive displacement of indoxyl sulfate by bilirubin in model uremic plasma. Type of data set: binding. The conditions noted are these: uremic plasma (BUN about 55 mg/dL, albumin 3.82 g/dL) with 2 mMolar Bil-DT, 12 hours at 37° C.; control without Bil-DT 0.65 μg/ml. The method, then: Two samples of uremic plasma (blood urea nitrogen (BUN) of about 55 mg/dL, albumin concentration of 3.82 g/dL) including indoxyl sulfate were incubated for 12 hours at 37° C. One sample also included 2 mMolar bilirubin ditauride (Bil-DT).
albumin, sequence (P02768 25-609): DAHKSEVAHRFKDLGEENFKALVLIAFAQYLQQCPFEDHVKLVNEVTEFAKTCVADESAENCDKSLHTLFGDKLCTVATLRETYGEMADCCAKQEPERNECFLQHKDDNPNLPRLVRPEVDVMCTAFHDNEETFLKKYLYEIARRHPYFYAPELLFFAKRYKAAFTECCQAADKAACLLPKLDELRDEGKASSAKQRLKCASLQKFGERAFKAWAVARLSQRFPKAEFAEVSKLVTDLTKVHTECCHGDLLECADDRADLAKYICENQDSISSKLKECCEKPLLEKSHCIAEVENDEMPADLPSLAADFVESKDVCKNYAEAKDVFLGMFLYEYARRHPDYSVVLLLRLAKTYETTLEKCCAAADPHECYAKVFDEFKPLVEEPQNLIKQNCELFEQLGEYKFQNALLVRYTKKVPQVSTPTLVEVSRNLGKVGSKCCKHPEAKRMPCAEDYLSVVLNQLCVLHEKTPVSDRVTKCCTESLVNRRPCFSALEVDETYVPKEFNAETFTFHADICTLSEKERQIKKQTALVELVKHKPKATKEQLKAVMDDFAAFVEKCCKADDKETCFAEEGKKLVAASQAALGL

Turning to `C=CC1=C(C)/C(=C/c2[nH]c(Cc3[nH]c(/C=C4\NC(=O)C(C)=C4C=C)c(C)c3CCC(=O)O)c(CCC(=O)O)c2C)NC1=O` [Bilirubin, bilirubin], in data set [1], the “non-toxic level of serum bilirubin concentration” value is “about 10 mg/dL”.

As for bilirubin ditauride [Bil-DT], on albumin, the “free indoxyl sulfate concentration” value amounted to 0.93 µg/mL.
